Experimental data reported in ChEMBL document CHEMBL1138068 (J Med Chem, 2006).
The source made the active and inactive calls. No cut-off for these calls is given here.

Assays:
[1] = target: Neuronal acetylcholine receptor subunit alpha-7 (Rattus norvegicus, UniProt Q05941); test: Displacement of [125I]alpha-BTX from alpha-7 nAChR in rat hippocampus membrane; format: cell membranes
[2] = target: Cytochrome P450 2D6 (Homo sapiens, UniProt P10635); test: Inhibition of CYP2D6; format: ADME
[3] = target: Cytochrome P450 1A2 (Homo sapiens, UniProt P05177); test: Inhibition of CYP1A2; format: ADME
[4] = target: Cytochrome P450 2C9 (Homo sapiens, UniProt P11712); test: Inhibition of CYP2C9; format: ADME
[5] = target: Cytochrome P450 2C19 (Homo sapiens, UniProt P33261); test: Inhibition of CYP2C19; format: ADME
[6] = target: Cytochrome P450 3A4 (Homo sapiens, UniProt P08684); test: Inhibition of CYP3A4; format: ADME
[7] = target: Serotonin 3 (5-HT3) receptor; test: Binding affinity to 5HT3 receptor; format: protein-complex assay, Homo sapiens
[8] = target: Adrenergic receptor alpha-1 (Homo sapiens, UniProt P35348+P25100+P35368); test: Binding affinity to adrenergic alpha-1 receptor; format: protein assay
[9] = target: Adrenergic receptor alpha-2 (Homo sapiens, UniProt P08913+P18825+P18089); test: Binding affinity to adrenergic alpha2 receptor; format: protein assay
[10] = target: Adrenergic receptor beta (Homo sapiens, UniProt P08588+P07550+P13945); test: Binding affinity to adrenergic beta receptor; format: protein assay
[11] = target: D(1A) dopamine receptor (Homo sapiens, UniProt P21728); test: Binding affinity to D1 receptor
[12] = target: D(2) dopamine receptor (Homo sapiens, UniProt P14416); test: Binding affinity to D2 receptor
[13] = target: D(3) dopamine receptor (Homo sapiens, UniProt P35462); test: Binding affinity to D3 receptor
[14] = target: D(4) dopamine receptor (Homo sapiens, UniProt P21917); test: Binding affinity to D4 receptor
[15] = target: Histamine H1 receptor (Homo sapiens, UniProt P35367); test: Binding affinity to histamine H1 receptor
[16] = target: Histamine H3 receptor (Homo sapiens, UniProt Q9Y5N1); test: Binding affinity to histamine H3 receptor
[17] = target: Glutamate receptor ionotropic AMPA (Homo sapiens, UniProt P42261+P42262+P42263+P48058); test: Binding affinity to AMPA receptor; format: protein-complex assay
[18] = target: Glutamate [NMDA] receptor; test: Binding affinity to NMDA receptor PCP site; format: protein-complex assay, Homo sapiens
[19] = Cmax in rat at 30 mg/kg, po; format: ADME, organism-based; parameters: dose 30 mg/kg, route oral; settings: in vivo
[20] = Tmax in rat at 10 mg/kg, po; format: ADME, organism-based; parameters: dose 10 mg/kg, route oral; settings: in vivo
[21] = Tmax in rat at 30 mg/kg, po; format: ADME, organism-based; parameters: dose 30 mg/kg, route oral; settings: in vivo
[22] = Half life in rat at 3 mg/kg, iv; format: ADME, organism-based; parameters: dose 3 mg/kg, route intravenous; settings: in vivo
[23] = Half life in rat at 10 mg/kg, po; format: ADME, organism-based; parameters: dose 10 mg/kg, route oral; settings: in vivo
[24] = Half life in rat at 30 mg/kg, po; format: ADME, organism-based; parameters: dose 30 mg/kg, route oral; settings: in vivo
[25] = Clearance in rat at 3 mg/kg, iv; format: ADME, organism-based; parameters: dose 3 mg/kg, route intravenous; settings: in vivo
[26] = Volume of distribution in rat at 3 mg/kg, iv; format: ADME, organism-based; parameters: dose 3 mg/kg, route intravenous; settings: in vivo, read-out: Vss
[27] = Oral bioavailability in rat at 10 mg/kg, po; format: ADME, organism-based; settings: in vivo
[28] = Oral bioavailability in rat at 30 mg/kg, po; format: ADME, organism-based; settings: in vivo
[29] = Permeability in rat assessed as ratio of concentration in brain to plasma at 10 mg/kg, po; format: ADME, organism-based; parameters: dose 10 mg/kg, route oral; settings: brain and plasma, read-out: BBR
[30] = AUC (0-infinity) in monkey at 3 mg/kg, iv; format: ADME, organism-based, Macaca mulatta; parameters: dose 3 mg/kg, route intravenous, time infinity; settings: rhesus monkey, plasma
[31] = AUC (0-infinity) in monkey at 1 mg/kg, po; format: ADME, organism-based, Macaca mulatta; parameters: time infinity, dose 1 mg/kg, route oral; settings: rhesus monkey, plasma
[32] = AUC (0-infinity) in monkey at 3 mg/kg, po; format: ADME, organism-based, Macaca mulatta; parameters: time infinity, dose 3 mg/kg, route oral; settings: rhesus monkey, plasma
[33] = AUC (0-infinity) in monkey at 10 mg/kg, po; format: ADME, organism-based, Macaca mulatta; parameters: time infinity, dose 10 mg/kg, route oral; settings: rhesus monkey, plasma
[34] = Cmax in monkey at 3 mg/kg, iv; format: ADME, organism-based, Macaca mulatta; parameters: dose 3 mg/kg, route intravenous; settings: rhesus monkey, in vivo
[35] = Cmax in monkey at 1 mg/kg, po; format: ADME, organism-based, Macaca mulatta; parameters: dose 1 mg/kg, route oral; settings: rhesus monkey, in vivo
[36] = Cmax in monkey at 3 mg/kg, po; format: ADME, organism-based, Macaca mulatta; parameters: dose 3 mg/kg, route oral; settings: rhesus monkey, in vivo
[37] = Cmax in monkey at 10 mg/kg, po; format: ADME, organism-based, Macaca mulatta; parameters: dose 10 mg/kg, route oral; settings: rhesus monkey, in vivo
[38] = Tmax in monkey at 3 mg/kg, iv; format: ADME, organism-based, Macaca mulatta; parameters: dose 3 mg/kg, route intravenous; settings: rhesus monkey, in vivo
[39] = Tmax in monkey at 1 mg/kg, po; format: ADME, organism-based, Macaca mulatta; parameters: dose 1 mg/kg, route oral; settings: rhesus monkey, in vivo
[40] = Tmax in monkey at 3 mg/kg, po; format: ADME, organism-based, Macaca mulatta; parameters: dose 3 mg/kg, route oral; settings: rhesus monkey, in vivo
[41] = Tmax in monkey at 10 mg/kg, po; format: ADME, organism-based, Macaca mulatta; parameters: dose 10 mg/kg, route oral; settings: rhesus monkey, in vivo
[42] = Half life in monkey at 3 mg/kg, iv; format: ADME, organism-based, Macaca mulatta; parameters: dose 3 mg/kg, route intravenous; settings: rhesus monkey, in vivo
[43] = Half life in monkey at 1 mg/kg, po; format: ADME, organism-based, Macaca mulatta; parameters: dose 1 mg/kg, route oral; settings: rhesus monkey, in vivo
[44] = Half life in monkey at 3 mg/kg, po; format: ADME, organism-based, Macaca mulatta; parameters: dose 3 mg/kg, route oral; settings: rhesus monkey, in vivo
[45] = Half life in monkey at 10 mg/kg, po; format: ADME, organism-based, Macaca mulatta; parameters: dose 10 mg/kg, route oral; settings: rhesus monkey, in vivo
[46] = Clearance in monkey at 3 mg/kg, iv; format: ADME, organism-based, Macaca mulatta; parameters: dose 3 mg/kg, route intravenous; settings: rhesus monkey, in vivo
[47] = Volume of distribution in monkey at 3 mg/kg, iv; format: ADME, organism-based, Macaca mulatta; parameters: dose 3 mg/kg, route intravenous; settings: rhesus monkey, in vivo, read-out: Vss
[48] = Oral bioavailability in monkey at 1 mg/kg, po; format: ADME, organism-based, Macaca mulatta; settings: rhesus monkey, in vivo
[49] = Cmax in rat at 10 mg/kg, po; format: ADME, organism-based; parameters: dose 10 mg/kg, route oral; settings: in vivo
[50] = Oral bioavailability in monkey at 3 mg/kg, po; format: ADME, organism-based, Macaca mulatta; settings: rhesus monkey, in vivo
[51] = Oral bioavailability in monkey at 10 mg/kg, po; format: ADME, organism-based, Macaca mulatta; settings: rhesus monkey, in vivo
[52] = tested on: Rattus norvegicus; test: Effect on MK-801-induced sensory gating in Wistar rat at 1 mg/kg, sc; format: functional, organism-based; parameters: dose 1 mg/kg
[53] = tested on: Rattus norvegicus; test: Increase in extracellular dopamine level in Wistar rat medial prefrontal cortex at 10 mg/kg, po; format: functional, organism-based; parameters: dose 10 mg/kg
[54] = tested on: Rattus norvegicus; test: Increase in extracellular dopamine level in Wistar rat medial prefrontal cortex at 30 mg/kg, po; format: functional, organism-based; parameters: dose 30 mg/kg
[55] = tested on: Rattus norvegicus; test: Reverse activity against scopolamine-induced impairment of cognitive performance in Wistar rat at 3 mg/kg, po by 8-arm radial maze task method; format: functional, organism-based; parameters: dose 3 mg/kg
[56] = tested on: Rattus norvegicus; test: Reverse activity against scopolamine-induced impairment of cognitive performance in Wistar rat at 10 mg/kg, po by 8-arm radial maze task method; format: functional, organism-based; parameters: dose 10 mg/kg
[57] = target: Neuronal acetylcholine receptor subunit alpha-7 (Homo sapiens) (UniProt P36544); test: Activity at alpha-7 nAChR assessed as stimulation of relative inward current in cultured hippocampal neurons relative to choline; format: functional, tissue-based; settings: Hippocampus, filed as partial agonist
[58] = target: Neuronal acetylcholine receptor; alpha4/beta2 (Rattus norvegicus, UniProt P09483+P12390); test: Inhibition of [3H]Cytisine binding to alpha-4-beta-2 nACh receptor in rat cerebral cortex membrane; format: cell membranes
[59] = target: Muscarinic acetylcholine receptor; test: Binding affinity to muscarinic receptor; format: protein assay, Homo sapiens
[60] = target: 5-hydroxytryptamine receptor 1A (Homo sapiens, UniProt P08908); test: Binding affinity to 5HT1A receptor
[61] = target: Serotonin 2 (5-HT2) receptor (Homo sapiens, UniProt P41595+P28223+P28335); test: Binding affinity to 5HT2 receptor; format: protein assay
[62] = target: Glutamate [NMDA] receptor; test: Binding affinity to NMDA receptor glycine site; format: protein-complex assay, Homo sapiens
[63] = target: 5-hydroxytryptamine receptor 3A (Cavia porcellus) (UniProt O70212); test: Antagonist activity against 5HT3 receptor assessed as inhibition of 5HT-induced contraction of guinea pig ileum; format: functional, tissue-based
[64] = AUC (0-infinity) in rat at 10 mg/kg, po; format: ADME, organism-based; parameters: time infinity, dose 10 mg/kg, route oral; settings: plasma
[65] = AUC (0-infinity) in rat at 30 mg/kg, po; format: ADME, organism-based; parameters: time infinity, dose 30 mg/kg, route oral; settings: plasma

Neuronal acetylcholine receptor subunit alpha-7, sequence (Q05941 whole entry): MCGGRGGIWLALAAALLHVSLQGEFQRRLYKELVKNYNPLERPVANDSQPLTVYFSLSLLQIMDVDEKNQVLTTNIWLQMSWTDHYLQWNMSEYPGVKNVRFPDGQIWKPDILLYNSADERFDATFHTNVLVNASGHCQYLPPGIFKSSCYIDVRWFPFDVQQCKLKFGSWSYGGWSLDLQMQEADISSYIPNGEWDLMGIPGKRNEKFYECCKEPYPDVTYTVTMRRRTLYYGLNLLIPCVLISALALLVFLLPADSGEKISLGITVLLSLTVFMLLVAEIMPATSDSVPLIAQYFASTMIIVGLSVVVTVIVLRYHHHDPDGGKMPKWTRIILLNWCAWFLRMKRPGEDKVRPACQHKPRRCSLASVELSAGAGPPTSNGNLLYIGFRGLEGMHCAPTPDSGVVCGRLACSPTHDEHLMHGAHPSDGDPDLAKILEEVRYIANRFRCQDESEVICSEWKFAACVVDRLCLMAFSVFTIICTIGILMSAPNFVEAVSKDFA
Cytochrome P450 2D6, sequence (P10635 whole entry): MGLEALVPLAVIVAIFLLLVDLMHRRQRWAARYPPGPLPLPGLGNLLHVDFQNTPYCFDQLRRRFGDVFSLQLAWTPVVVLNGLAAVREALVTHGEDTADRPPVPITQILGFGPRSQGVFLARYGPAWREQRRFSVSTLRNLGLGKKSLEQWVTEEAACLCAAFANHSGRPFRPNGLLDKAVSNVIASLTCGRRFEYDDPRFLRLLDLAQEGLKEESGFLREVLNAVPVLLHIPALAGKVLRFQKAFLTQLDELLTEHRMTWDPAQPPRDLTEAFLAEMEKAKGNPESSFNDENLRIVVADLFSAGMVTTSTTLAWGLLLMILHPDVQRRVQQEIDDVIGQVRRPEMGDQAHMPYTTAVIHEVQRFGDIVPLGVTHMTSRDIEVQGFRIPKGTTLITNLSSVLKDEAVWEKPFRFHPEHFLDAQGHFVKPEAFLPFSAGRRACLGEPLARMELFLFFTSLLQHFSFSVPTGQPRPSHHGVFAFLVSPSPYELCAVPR
Cytochrome P450 2C9, sequence (P11712 whole entry): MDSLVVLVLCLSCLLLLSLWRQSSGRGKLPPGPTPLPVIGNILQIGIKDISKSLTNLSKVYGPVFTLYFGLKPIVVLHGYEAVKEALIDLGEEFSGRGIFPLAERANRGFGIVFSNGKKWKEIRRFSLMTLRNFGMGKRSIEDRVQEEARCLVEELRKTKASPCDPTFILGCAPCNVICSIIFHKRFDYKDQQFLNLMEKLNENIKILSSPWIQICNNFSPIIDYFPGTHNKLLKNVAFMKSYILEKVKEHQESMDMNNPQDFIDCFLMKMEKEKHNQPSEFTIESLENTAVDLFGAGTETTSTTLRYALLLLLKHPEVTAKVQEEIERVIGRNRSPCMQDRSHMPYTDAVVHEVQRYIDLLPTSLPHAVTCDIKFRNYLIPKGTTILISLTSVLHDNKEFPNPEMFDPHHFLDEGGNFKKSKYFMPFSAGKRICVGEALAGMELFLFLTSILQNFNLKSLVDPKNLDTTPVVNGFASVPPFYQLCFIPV
Cytochrome P450 2C19, sequence (P33261 whole entry): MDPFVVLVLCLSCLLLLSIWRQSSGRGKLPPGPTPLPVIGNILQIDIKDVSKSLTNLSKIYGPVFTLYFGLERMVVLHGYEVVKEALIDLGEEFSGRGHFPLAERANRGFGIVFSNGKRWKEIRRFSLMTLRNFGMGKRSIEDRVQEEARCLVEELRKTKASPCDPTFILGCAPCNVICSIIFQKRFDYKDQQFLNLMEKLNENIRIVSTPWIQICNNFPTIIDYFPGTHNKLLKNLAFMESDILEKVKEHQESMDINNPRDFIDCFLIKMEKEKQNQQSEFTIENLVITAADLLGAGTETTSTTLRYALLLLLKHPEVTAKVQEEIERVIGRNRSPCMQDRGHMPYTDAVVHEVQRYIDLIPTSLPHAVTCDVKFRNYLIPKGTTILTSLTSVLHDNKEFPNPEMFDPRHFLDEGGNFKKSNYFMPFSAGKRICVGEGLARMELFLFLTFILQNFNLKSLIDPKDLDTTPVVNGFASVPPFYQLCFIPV
Cytochrome P450 1A2, sequence (P05177 whole entry): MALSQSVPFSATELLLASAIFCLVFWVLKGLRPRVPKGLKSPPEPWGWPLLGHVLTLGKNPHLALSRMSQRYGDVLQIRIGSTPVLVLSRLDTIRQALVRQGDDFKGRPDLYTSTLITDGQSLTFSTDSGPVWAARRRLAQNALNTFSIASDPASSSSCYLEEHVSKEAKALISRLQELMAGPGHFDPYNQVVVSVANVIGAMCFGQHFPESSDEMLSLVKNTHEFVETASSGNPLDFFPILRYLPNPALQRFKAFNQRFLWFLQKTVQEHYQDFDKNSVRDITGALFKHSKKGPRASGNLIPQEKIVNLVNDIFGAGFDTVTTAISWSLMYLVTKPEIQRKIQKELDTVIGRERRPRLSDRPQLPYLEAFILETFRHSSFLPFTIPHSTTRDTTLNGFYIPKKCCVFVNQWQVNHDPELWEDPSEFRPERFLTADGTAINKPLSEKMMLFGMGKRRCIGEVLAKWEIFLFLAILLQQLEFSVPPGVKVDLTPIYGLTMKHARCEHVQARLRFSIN
Cytochrome P450 3A4, sequence (P08684 whole entry): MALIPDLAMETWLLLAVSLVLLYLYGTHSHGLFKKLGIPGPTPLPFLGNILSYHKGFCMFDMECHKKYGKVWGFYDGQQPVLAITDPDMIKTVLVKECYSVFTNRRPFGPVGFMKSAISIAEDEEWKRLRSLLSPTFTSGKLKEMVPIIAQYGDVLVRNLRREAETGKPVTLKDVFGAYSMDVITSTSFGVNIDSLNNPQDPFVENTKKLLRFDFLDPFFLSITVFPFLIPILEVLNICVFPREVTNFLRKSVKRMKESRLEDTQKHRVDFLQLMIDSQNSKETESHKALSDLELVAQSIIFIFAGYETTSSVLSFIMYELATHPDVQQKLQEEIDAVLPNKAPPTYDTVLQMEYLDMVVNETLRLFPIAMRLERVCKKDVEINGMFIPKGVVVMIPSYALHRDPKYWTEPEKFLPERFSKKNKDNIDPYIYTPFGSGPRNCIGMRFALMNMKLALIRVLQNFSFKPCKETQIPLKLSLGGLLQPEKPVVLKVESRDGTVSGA
D(1A) dopamine receptor, sequence (P21728 whole entry): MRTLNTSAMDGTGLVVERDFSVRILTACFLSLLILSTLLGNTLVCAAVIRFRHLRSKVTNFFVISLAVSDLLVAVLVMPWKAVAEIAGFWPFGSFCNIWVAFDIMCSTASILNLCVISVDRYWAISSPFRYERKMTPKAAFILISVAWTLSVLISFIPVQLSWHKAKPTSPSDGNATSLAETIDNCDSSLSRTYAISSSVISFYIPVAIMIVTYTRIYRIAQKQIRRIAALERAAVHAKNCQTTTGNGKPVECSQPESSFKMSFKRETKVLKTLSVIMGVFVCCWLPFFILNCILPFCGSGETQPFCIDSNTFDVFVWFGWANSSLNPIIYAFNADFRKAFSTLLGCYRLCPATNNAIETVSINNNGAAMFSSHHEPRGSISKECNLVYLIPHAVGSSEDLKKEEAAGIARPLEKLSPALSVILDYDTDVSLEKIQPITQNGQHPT
Histamine H3 receptor, sequence (Q9Y5N1 whole entry): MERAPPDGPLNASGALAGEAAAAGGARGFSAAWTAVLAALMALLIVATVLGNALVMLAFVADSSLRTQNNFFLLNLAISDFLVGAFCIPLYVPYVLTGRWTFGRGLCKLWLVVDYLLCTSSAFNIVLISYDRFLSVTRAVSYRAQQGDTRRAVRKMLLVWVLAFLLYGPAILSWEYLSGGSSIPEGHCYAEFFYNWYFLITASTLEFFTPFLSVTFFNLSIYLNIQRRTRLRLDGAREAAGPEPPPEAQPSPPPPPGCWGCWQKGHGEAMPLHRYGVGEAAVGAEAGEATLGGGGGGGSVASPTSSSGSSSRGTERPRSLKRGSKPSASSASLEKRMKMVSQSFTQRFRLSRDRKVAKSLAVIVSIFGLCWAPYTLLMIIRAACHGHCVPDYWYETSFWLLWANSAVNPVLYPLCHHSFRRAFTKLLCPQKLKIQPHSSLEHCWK
5-hydroxytryptamine receptor 1A, sequence (P08908 whole entry): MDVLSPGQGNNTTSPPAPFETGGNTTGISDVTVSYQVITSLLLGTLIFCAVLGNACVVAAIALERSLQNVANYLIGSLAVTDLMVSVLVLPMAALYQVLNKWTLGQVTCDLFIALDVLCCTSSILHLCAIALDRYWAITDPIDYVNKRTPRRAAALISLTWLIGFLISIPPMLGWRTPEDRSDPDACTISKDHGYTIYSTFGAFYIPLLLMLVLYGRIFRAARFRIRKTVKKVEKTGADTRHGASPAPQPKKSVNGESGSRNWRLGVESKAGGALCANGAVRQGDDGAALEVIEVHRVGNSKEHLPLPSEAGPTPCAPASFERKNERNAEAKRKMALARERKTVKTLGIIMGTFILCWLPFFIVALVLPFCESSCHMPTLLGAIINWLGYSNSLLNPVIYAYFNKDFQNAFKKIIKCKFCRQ
Neuronal acetylcholine receptor subunit alpha-7 (Homo sapiens), sequence (P36544 whole entry): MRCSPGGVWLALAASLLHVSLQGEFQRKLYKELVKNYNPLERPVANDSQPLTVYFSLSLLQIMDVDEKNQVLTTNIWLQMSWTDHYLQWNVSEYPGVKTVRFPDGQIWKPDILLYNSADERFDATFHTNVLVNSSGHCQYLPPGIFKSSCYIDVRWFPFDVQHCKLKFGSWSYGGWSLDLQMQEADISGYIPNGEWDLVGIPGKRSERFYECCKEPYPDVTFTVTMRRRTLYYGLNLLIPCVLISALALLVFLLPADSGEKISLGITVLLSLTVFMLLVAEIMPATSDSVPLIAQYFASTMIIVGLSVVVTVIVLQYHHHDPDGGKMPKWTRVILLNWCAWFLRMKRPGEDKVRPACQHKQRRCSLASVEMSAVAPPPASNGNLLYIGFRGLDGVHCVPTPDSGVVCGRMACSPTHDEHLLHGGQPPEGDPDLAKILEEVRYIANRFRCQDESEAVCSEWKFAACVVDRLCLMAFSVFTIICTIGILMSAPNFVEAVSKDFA

O=C1O[C@@]2(CN3CCC2CC3)CN1c1ccc2c(c1)CCC2
Ki [1]: 0.2 µM

O=C1OC2(CN3CCC2CC3)CN1c1ccc2ncccc2c1 (single isomer, unassigned)
IC50 [1]: > 1 µM

O=C1O[C@]2(CN3CCC2CC3)CN1c1ccc(Cl)s1
IC50 [2]: 2 µM
Activity [3]: Not Active
Activity [4]: Not Active
Activity [5]: Not Active
Activity [6]: Not Active

Cc1oc2ccc(N3C[C@]4(CN5CCC4CC5)OC3=O)cc2c1C
Ki [1]: 0.004 µM
IC50 [2]: > 30 µM

O=C1O[C@]2(CN3CCC2CC3)CN1c1ccc2c(c1)OCC2
Ki [1]: 0.41 µM

Cc1coc2ccc(N3C[C@@]4(CN5CCC4CC5)OC3=O)cc12
IC50 [7]: 0.01 µM
IC50 [8]: > 10 µM
IC50 [9]: > 10 µM
IC50 [10]: > 10 µM
IC50 [11]: > 10 µM
IC50 [12]: > 10 µM
IC50 [13]: > 10 µM
IC50 [14]: > 10 µM
IC50 [15]: > 10 µM
IC50 [16]: > 10 µM
IC50 [17]: > 10 µM
IC50 [18]: > 10 µM
Cmax [19]: 618 ng/mL
Tmax [20]: 0.44 h
Tmax [21]: 0.38 h
half-life [22]: 3.3 h
half-life [23]: 3 h
half-life [24]: 1.7 h
clearance [25]: 83.3 mL/min/kg
Vd [26]: 7.59 L/kg
bioavailability [27]: 10.5%
bioavailability [28]: 17.3%
Kp [29]: 10.2
AUC(0-inf) [30]: 732 ng·h/mL
AUC(0-inf) [31]: 63 ng·h/mL
AUC(0-inf) [32]: 387 ng·h/mL
AUC(0-inf) [33]: 2020 ng·h/mL
Cmax [34]: 288 ng/mL
Cmax [35]: 9.1 ng/mL
Cmax [36]: 75.5 ng/mL
Cmax [37]: 384 ng/mL
Tmax [38]: 0.36 h
Tmax [39]: 2 h
Tmax [40]: 3.3 h
Tmax [41]: 2.3 h
half-life [42]: 1.9 h
half-life [43]: 4.2 h
half-life [44]: 5.4 h
half-life [45]: 6 h
clearance [46]: 70.2 mL/min/kg
Vd [47]: 10.7 L/kg
bioavailability [48]: 25.8%
Cmax [49]: 120 ng/mL
bioavailability [50]: 57.2%
bioavailability [51]: 82.8%
Activity [52]: Active
Activity [53]: Active
Activity [54]: Active
Activity [55]: Dose-dependent effect
Activity [56]: Dose-dependent effect
Ki [1]: 0.003 µM
IC50 [2]: > 30 µM
Activity [3]: Not Active
Activity [4]: Not Active
Activity [5]: Not Active
Activity [6]: Not Active
Activity [57]: Partial agonist
IC50 [58]: > 10 µM
IC50 [59]: > 10 µM
IC50 [60]: > 10 µM
IC50 [61]: > 10 µM
IC50 [62]: > 10 µM
Activity [63]: Active
AUC(0-inf) [64]: 225 ng·h/mL
AUC(0-inf) [65]: 1010 ng·h/mL

CCc1cc2cc(N3C[C@@]4(CN5CCC4CC5)OC3=O)ccc2s1
Ki [1]: 0.135 µM
IC50 [2]: > 30 µM
